From patent US20200055844A1, “4-SULFONYLAMINOCARBONYLQUINOLINE DERIVATIVES FOR INCREASING CFTR ACTIVITY” (Proteostasis Therapeutics, Inc., priority 2017, published 2020)

Target: T1, ΔF508-CFTR (Homo sapiens, UniProt P13569, DEL508-508)
T1 construct: Primary lung epithelial cells homozygous for the Cystic Fibrosis-causing ΔF508 mutation were differentiated; endogenous in cells; host or cells: primary lung (bronchial) epithelial cells (hBE) homozygous for ΔF508, differentiated at an air-liquid interface
T1 sequence (P13569 with tags, fused parts or gaps DEL508-508): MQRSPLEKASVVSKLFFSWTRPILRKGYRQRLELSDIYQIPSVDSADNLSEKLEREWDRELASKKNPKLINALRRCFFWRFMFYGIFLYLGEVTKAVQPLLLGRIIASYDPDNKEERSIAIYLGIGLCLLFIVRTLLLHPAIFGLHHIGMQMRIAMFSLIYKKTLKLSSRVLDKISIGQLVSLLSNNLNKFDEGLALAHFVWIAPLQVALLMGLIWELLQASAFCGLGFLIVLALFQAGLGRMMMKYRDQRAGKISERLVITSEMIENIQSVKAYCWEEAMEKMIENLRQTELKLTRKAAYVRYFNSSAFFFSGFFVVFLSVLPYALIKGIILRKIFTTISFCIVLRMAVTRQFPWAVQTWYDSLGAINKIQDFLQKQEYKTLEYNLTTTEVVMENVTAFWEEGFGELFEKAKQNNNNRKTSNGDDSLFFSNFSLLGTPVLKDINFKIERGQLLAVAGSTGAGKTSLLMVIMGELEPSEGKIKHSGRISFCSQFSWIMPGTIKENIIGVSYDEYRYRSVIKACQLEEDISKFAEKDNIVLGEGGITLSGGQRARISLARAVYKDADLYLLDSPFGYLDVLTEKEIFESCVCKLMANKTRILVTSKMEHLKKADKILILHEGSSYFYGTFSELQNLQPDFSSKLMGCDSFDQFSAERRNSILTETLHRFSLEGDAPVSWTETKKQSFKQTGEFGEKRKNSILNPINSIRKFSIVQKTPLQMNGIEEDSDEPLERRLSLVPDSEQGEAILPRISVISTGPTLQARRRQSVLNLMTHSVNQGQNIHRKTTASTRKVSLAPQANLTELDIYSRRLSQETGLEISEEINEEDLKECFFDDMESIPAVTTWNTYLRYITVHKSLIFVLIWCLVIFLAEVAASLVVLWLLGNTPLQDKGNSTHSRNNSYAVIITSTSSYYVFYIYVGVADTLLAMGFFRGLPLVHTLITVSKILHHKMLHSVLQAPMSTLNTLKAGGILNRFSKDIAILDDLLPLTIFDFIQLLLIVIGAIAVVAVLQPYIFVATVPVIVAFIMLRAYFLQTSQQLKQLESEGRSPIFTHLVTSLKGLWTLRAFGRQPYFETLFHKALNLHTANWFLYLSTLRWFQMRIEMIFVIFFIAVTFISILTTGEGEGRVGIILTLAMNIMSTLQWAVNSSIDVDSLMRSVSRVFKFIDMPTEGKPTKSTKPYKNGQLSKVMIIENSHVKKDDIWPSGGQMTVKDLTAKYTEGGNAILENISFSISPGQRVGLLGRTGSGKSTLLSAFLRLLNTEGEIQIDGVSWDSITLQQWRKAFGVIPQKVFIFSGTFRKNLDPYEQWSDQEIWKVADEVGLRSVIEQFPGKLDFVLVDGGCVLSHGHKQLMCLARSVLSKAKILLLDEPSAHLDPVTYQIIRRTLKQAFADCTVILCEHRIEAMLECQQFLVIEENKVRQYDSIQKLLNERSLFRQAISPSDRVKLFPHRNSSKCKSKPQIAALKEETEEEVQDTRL
Test: hBE equivalent current (Ieq) assay
Format: cell-based
Conditions: AUC of equivalent chloride current, % of CFTR amplifier (Compound A)+VX-809 (3 uM); compound at 10 uM and Compound A at 3 uM; primary lung epithelial cells homozygous ΔF508, 24 hours treatment
Protocol: ii. hBE Equivalent Current (Ieq) Assay
Primary lung epithelial cells homozygous for the Cystic Fibrosis-causing ΔF508 mutation were differentiated for a minimum of 4 weeks in an air-liquid interface on Costar 24 well HTS filter plates prior to the equivalent current (Ieq) measurements. Cells were apically mucus-washed for 30 minutes 24 h prior to treatment with compounds. The basolateral media was removed and replaced with media containing the compound of interest diluted to its final concentration from DMSO stocks. Treated cells were incubated at 37° C. and 5% CO2 for 24 hours. At the end of the treatment period, the media was changed to the Ieq experimental solution for 2 hours before the experiment and plates are maintained in a CO2-free incubator during this period. The plates containing the cells were then placed in pre-warmed heating blocks at 36° C.±0.5 for 15 minutes before measurements are taken. The transepithelial voltage (VT) and conductance (Gr) were measured using a custom 24 channel current clamp (TECC-24) with 24 well electrode manifold. The Ieq assay measurements were made following additions with standardized time periods: • 1. The baseline VT and Gr values were measured for approximately 20 minutes. • 2. Benzamil was added to block ENaC for 15 minutes. • 3. Forskolin plus VX-770 were added to maximally activate ΔF508-CFTR for 27 minutes. • 4. Bumetanide was added to inhibit the NaK2Cl cotransporter and shut-off secretion of chloride.
The activity data captured was the area under the curve (AUC) for the traces of the equivalent chloride current. The AUC was collected from the time of the forskolin/VX-770 addition until the inhibition by bumetanide addition. Correction in response to compound treatment was scored as the increase in the AUC for compound-treated samples over that of vehicle-treated samples.
(+ indicates activity <100% of a CFTR amplifier (Compound A)+VX-809 (3 uM) with compound at 10 uM and Compound A at 3 uM; ++ indicates activity ≥100% and <200% of CFTR amplifier+VX-809 (3 uM) with compound at 10 uM and Compound A at 3 uM; +++ indicates activity >200% of CFTR amplifier+VX-809 (3 uM) with compound at 10 uM and Compound A at 3 uM.

`Cc1c(-c2cc(C(=O)NS(=O)(=O)c3ccccc3)c3c(O[C@H](C)c4ccccc4)ccc(C)c3n2)sc2ccccc12` [Compound 9] was tested, and the Activity was “++ (activity ≥100% and <200% of CFTR amplifier+VX-809 (3 uM) with compound at 10 uM and Compound A at 3 uM)”.
In the case of `Cc1c(-c2cc(C(=O)NS(=O)(=O)c3cccc(N)c3)c3c(O[C@H](C)c4ccccc4)ccc(C)c3n2)sc2ccccc12` [Compound 13], the Activity is reported as “+++ (activity >200% of CFTR amplifier+VX-809 (3 uM) with compound at 10 uM and Compound A at 3 uM)”.
`Cc1c(-c2cc(C(=O)NS(=O)(=O)c3cccc(N)n3)c3c(O[C@H](C)c4ccccc4)ccc(C)c3n2)sc2ccccc12` [Compound 11] was tested, and the Activity was “++ (activity ≥100% and <200% of CFTR amplifier+VX-809 (3 uM) with compound at 10 uM and Compound A at 3 uM)”.
In the case of `Cc1c(-c2cc(C(=O)NS(C)(=O)=O)c3c(O[C@H](C)c4ccccc4)ccc(C)c3n2)oc2ccccc12` [Compound 2], the Activity is reported as “+++ (activity >200% of CFTR amplifier+VX-809 (3 uM) with compound at 10 uM and Compound A at 3 uM)”.
`Cc1c(-c2cc(C(=O)NS(=O)(=O)N3CC[C@H](N)C3)c3c(O[C@H](C)c4ccccc4)ccc(C)c3n2)sc2ccccc12` [Compound 15] was tested, and the Activity was “++ (activity ≥100% and <200% of CFTR amplifier+VX-809 (3 uM) with compound at 10 uM and Compound A at 3 uM)”.
With `Cc1c(-c2cc(C(=O)NS(=O)(=O)c3cccc(N)c3)c3c(O[C@H](C)c4ccccc4)ccc(C)c3n2)oc2ccccc12` [Compound 14] the Activity was “+++ (activity >200% of CFTR amplifier+VX-809 (3 uM) with compound at 10 uM and Compound A at 3 uM)”.
`Cc1c(-c2cc(C(=O)NS(=O)(=O)c3cccc(N)n3)c3c(O[C@H](C)c4ccccc4)ccc(C)c3n2)oc2ccccc12` [Compound 12] was tested, and the Activity was “++ (activity ≥100% and <200% of CFTR amplifier+VX-809 (3 uM) with compound at 10 uM and Compound A at 3 uM)”.
In the case of `Cc1c(-c2cc(C(=O)NS(=O)(=O)C3CC3)c3c(O[C@H](C)c4ccccc4)ccc(C)c3n2)sc2ccccc12` [Compound 3], the Activity is reported as “++ (activity ≥100% and <200% of CFTR amplifier+VX-809 (3 uM) with compound at 10 uM and Compound A at 3 uM)”.
`Cc1c(-c2cc(C(=O)NS(C)(=O)=O)c3c(O[C@H](C)c4ccccc4)ccc(C)c3n2)sc2ccccc12` [Compound 1] was tested, and the Activity was “+++ (activity >200% of CFTR amplifier+VX-809 (3 uM) with compound at 10 uM and Compound A at 3 uM)”.
In the case of `Cc1c(-c2cc(C(=O)NS(=O)(=O)C3CC3)c3c(O[C@H](C)c4ccccc4)ccc(C)c3n2)oc2ccccc12` [Compound 4], the Activity is reported as “++ (activity ≥100% and <200% of CFTR amplifier+VX-809 (3 uM) with compound at 10 uM and Compound A at 3 uM)”.
In the case of `Cc1c(-c2cc(C(=O)NS(=O)(=O)N3CCOCC3)c3c(O[C@H](C)c4ccccc4)ccc(C)c3n2)oc2ccccc12` [Compound 8], the Activity is reported as “+ (activity <100% of a CFTR amplifier (Compound A)+VX-809 (3 uM) with compound at 10 uM and Compound A at 3 uM)”.
`Cc1c(-c2cc(C(=O)NS(=O)(=O)N3CC[C@H](N)C3)c3c(O[C@H](C)c4ccccc4)ccc(C)c3n2)oc2ccccc12` [Compound 16] was tested, and the Activity was “+++ (activity >200% of CFTR amplifier+VX-809 (3 uM) with compound at 10 uM and Compound A at 3 uM)”.
`Cc1c(-c2cc(C(=O)NS(=O)(=O)c3cnc(N)s3)c3c(O[C@H](C)c4ccccc4)ccc(C)c3n2)sc2ccccc12` [Compound 17] was tested, and the Activity was “+++ (activity >200% of CFTR amplifier+VX-809 (3 uM) with compound at 10 uM and Compound A at 3 uM)”.
For `Cc1c(-c2cc(C(=O)NS(=O)(=O)N3CCOCC3)c3c(O[C@H](C)c4ccccc4)ccc(C)c3n2)sc2ccccc12` [Compound 7], the Activity was “+++ (activity >200% of CFTR amplifier+VX-809 (3 uM) with compound at 10 uM and Compound A at 3 uM)”.
`Cc1c(-c2cc(C(=O)NS(=O)(=O)c3ccccc3)c3c(O[C@H](C)c4ccccc4)ccc(C)c3n2)oc2ccccc12` [Compound 10] was tested, and the Activity was “++ (activity ≥100% and <200% of CFTR amplifier+VX-809 (3 uM) with compound at 10 uM and Compound A at 3 uM)”.
For `Cc1c(-c2cc(C(=O)NS(=O)(=O)c3cnc(N)s3)c3c(O[C@H](C)c4ccccc4)ccc(C)c3n2)oc2ccccc12` [Compound 18], the Activity was “+ (activity <100% of a CFTR amplifier (Compound A)+VX-809 (3 uM) with compound at 10 uM and Compound A at 3 uM)”.
